Experimental data as given in US20260258048A1, “LACTAM-CONTAINING IMIDAZOPYRIDAZINE IL-17 INHIBITOR COMPOUNDS” (Janssen Pharmaceutica NV, priority 2023, published 2026).

What was measured:
[1] = molecular target: IL-17A(FLAG-tagged): IL-17RA(His-tagged) (Homo sapiens, UniProt Q16552, K93Q); assay: IL-17A(FLAG-tagged): IL-17RA(His-tagged) binding disruption Eu-HTRF assay; settings: class of the average IC50 where tested more than once
Summary of the method: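 Compound (22-point, 2-fold series) was pre-incubated 1 h at rt with FLAG-IL-17A, added as a 2× solution (1 μM). A 2× mix of C-terminal 10×His IL-17RA, Eu-anti-FLAG donor and D2-anti-His acceptor in PBS/0.01% Triton X-100/200 mM KF was then added for 2 h at rt. The 665/615 nm ratio was fitted to one-site competition for IC50.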

[2] = system: IL-17A-induced G-CSF production in human normal keratinocyte (NHK); assay: NHK assay: IL-17A-induced G-CSF production in normal human keratinocytes; type: cell-based; settings: IL-17A 5 ng/mL, 24 h, class of the average IC50 where tested more than once
Summary of the method: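 Adult keratinocytes at 3000-4000 cells/well; recombinant human IL-17A pre-incubated 1 h at rt with titrated compound, then added to cells (final 5 ng/mL IL-17A, 0.2% DMSO, 5% FBS) for 24 h at 37 °C. Supernatant G-CSF quantified by HTRF against a standard curve to give IC50; viability checked by CellTiter-Glo versus DMSO.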

Sequence of UniProt Q16552 (Q16552 with tags, fused parts or gaps K93Q): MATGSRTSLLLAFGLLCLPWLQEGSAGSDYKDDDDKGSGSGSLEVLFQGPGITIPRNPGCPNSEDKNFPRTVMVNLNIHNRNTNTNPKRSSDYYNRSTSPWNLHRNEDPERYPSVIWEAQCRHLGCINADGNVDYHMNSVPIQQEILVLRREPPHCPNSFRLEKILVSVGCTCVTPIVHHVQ

IC50 [1] [µM] | Compound | IC50 [2] [µM] | IC50 ([2]; Homo sapiens, Keratinocyte) [µM]
< 0.4 | O=C(N[C@H](c1cn2ncc(C[C@@]34CCC[C@H](C3)NC4=O)cc2n1)C1CCC(F)(F)CC1)c1nonc1C1CC1 (single isomer, unassigned) [Example 11] | – | < 0.4
> 4 | CC1(C)C[C@H](Cc2cnn3cc([C@@H](NC(=O)c4nonc4C4CC4)C4CCC(F)(F)CC4)nc3c2)C(=O)N1 (single isomer, unassigned) [Example 14] | – | > 4
> 4 | CC1(C)CNC(=O)C1Cc1cnn2cc([C@@H](NC(=O)c3nonc3C3CC3)C3CCC(F)(F)CC3)nc2c1 (single isomer, unassigned) [Example 15, 4-Cyclopropyl-N—[(S)-(4,4-difluorocyclohexyl)-[7-[[(3R*)-4,4-dimethyl-2-oxo-pyrrolidin-3-yl]methyl]imidazo[1,2-b]pyridazin-2-yl]methyl]-1,2,5-oxadiazole-3-carboxamide] | – | > 4
0.4 to 4 | CC1(C)CNC(=O)C1Cc1cnn2cc([C@@H](NC(=O)c3nonc3C3CC3)C3CCC(F)(F)CC3)nc2c1 (single isomer, unassigned) [Example 16, 4-Cyclopropyl-N—[(S)-(4,4-difluorocyclohexyl)-[7-[[(3S*)-4,4-dimethyl-2-oxo-pyrrolidin-3-yl]methyl]imidazo[1,2-b]pyridazin-2-yl]methyl]-1,2,5-oxadiazole-3-carboxamide] | > 4 | –
0.4 to 4 | O=C(N[C@H](c1cn2ncc(C[C@@]34CC[C@H](C3)NC4=O)cc2n1)C1CCC(F)(F)CC1)c1nonc1C1CC1 (single isomer, unassigned) [Example 17] | – | > 4
0.4 to 4 | O=C(N[C@H](c1cn2ncc(C[C@]34CC[C@@H](C3)NC4=O)cc2n1)C1CCC(F)(F)CC1)c1nonc1C1CC1 (single isomer, unassigned) [Example 18] | – | 0.4 to 4
0.4 to 4 | O=C(N[C@H](c1cn2ncc(CC3CCNC3=O)cc2n1)C1CCC(F)(F)CC1)c1nonc1C1CC1 (single isomer, unassigned) [Example 21, 4-Cyclopropyl-N—[(S)-(4,4-difluorocyclohexyl)-[7-[[(3R*)-2-oxopyrrolidin-3-yl]methyl]imidazo[1,2-b]pyridazin-2-yl]methyl]-1,2,5-oxadiazole-3-carboxamide] | – | > 4
> 4 | O=C(N[C@H](c1cn2ncc(CC3CCNC3=O)cc2n1)C1CCC(F)(F)CC1)c1nonc1C1CC1 (single isomer, unassigned) [Example 22, 4-Cyclopropyl-N—[(S)-(4,4-difluorocyclohexyl)-[7-[[(3S*)-2-oxopyrrolidin-3-yl]methyl]imidazo[1,2-b]pyridazin-2-yl]methyl]-1,2,5-oxadiazole-3-carboxamide] | > 4 | –
0.4 to 4 | O=C(N[C@H](c1cn2ncc(CC3CCCCNC3=O)cc2n1)C1CCC(F)(F)CC1)c1nonc1C1CC1 (single isomer, unassigned) [Example 25, 4-Cyclopropyl-N—((S)-(4,4-difluorocyclohexyl(7-(((R*)-2-oxoazepan-3-yl)methyl)imidazo[1,2-b]pyridazin-2-yl)methyl)-1,2,5-oxadiazole-3-carboxamide] | – | > 4
0.4 to 4 | O=C(N[C@H](c1cn2ncc(CC3CCCCNC3=O)cc2n1)C1CCC(F)(F)CC1)c1nonc1C1CC1 (single isomer, unassigned) [Example 26, 4-Cyclopropyl-N—((S)-(4,4-difluorocyclohexyl)(7-(((S*)-2-oxoazepan-3-yl)methyl)imidazo[1,2-b]pyridazin-2-yl)methyl)-1,2,5-oxadiazole-3-carboxamide] | > 4 | –
0.4 to 4 | CC1(Cc2cnn3cc([C@@H](NC(=O)c4nonc4C4CC4)C4CCC(F)(F)CC4)nc3c2)CCCNC1=O (single isomer, unassigned) [Example 27, 4-Cyclopropyl-N—((S)-(4,4-difluorocyclohexyl)(7-(((R*)-3-methyl-2-oxopiperidin-3-yl)methyl)imidazo[1,2-b]pyridazin-2-yl)methyl)-1,2,5-oxadiazole-3-carboxamide] | > 4 | –
< 0.4 | CC1(Cc2cnn3cc([C@@H](NC(=O)c4nonc4C4CC4)C4CCC(F)(F)CC4)nc3c2)CCCNC1=O (single isomer, unassigned) [Example 28, 4-Cyclopropyl-N—((S)-(4,4-difluorocyclohexyl)(7-(((S*)-3-methyl-2-oxopiperidin-3-yl)methyl)imidazo[1,2-b]pyridazin-2-yl)methyl)-1,2,5-oxadiazole-3-carboxamide] | 0.4 to 4 | –
0.4 to 4 | CC1(Cc2cnn3cc([C@@H](NC(=O)c4nonc4C4CC4)C4CCC(F)(F)CC4)nc3c2)CCNC1=O (single isomer, unassigned) [Example 53, 4-Cyclopropyl-N—((S)-(4,4-difluorocyclohexyl)(7-(((R*)-3-methyl-2-oxopyrrolidin-3-yl)methyl)imidazo[1,2-b]pyridazin-2-yl)methyl)-1,2,5-oxadiazole-3-carboxamide] | 0.4 to 4 | –

Second part, the compound before the results:

Compound | IC50 [1] [µM] | IC50 [2] [µM] | IC50 ([2]; Homo sapiens, Keratinocyte) [µM]
COc1nonc1C(=O)N[C@H](c1cn2ncc(CC3C[C@@H](C(F)(F)F)NC3=O)cc2n1)C1CCC(F)(F)CC1 (single isomer, unassigned) [Example 7, N—[(S)-(4,4-Difluorocyclohexyl)-[7-[[(3R*,5S)-2-oxo-5-(trifluoromethyl)pyrrolidin-3-yl]methyl]imidazo[1,2-b]pyridazin-2-yl]methyl]-4-methoxy-1,2,5-oxadiazole-3-carboxamide] | < 0.4 | < 0.4 | –
COc1nonc1C(=O)N[C@H](c1cn2ncc(CC3C[C@@H](C(F)(F)F)NC3=O)cc2n1)C1CCC(F)(F)CC1 (single isomer, unassigned) [Example 8, N—((S)-(4,4-Difluorocyclohexyl)(7-(((3S*,5S)-2-oxo-5-(trifluoromethyl)pyrrolidin-3-yl)methyl)imidazo[1,2-b]pyridazin-2-yl)methyl)-4-methoxy-1,2,5-oxadiazole-3-carboxamide] | > 4 | > 4 | –
Cc1nonc1C(=O)N[C@H](c1cn2ncc(CC3C[C@@H](C(F)(F)F)NC3=O)cc2n1)C1CCC(F)(F)CC1 (single isomer, unassigned) [Example 9, N—[(S)-(4,4-Difluorocyclohexyl)-[7-[[(3S*,5S)-2-oxo-5-(trifluoromethyl)pyrrolidin-3-yl]methyl]imidazo[1,2-b]pyridazin-2-yl]methyl]-4-methyl-1,2,5-oxadiazole-3-carboxamide] | < 0.4 | < 0.4 | –
Cc1nonc1C(=O)N[C@H](c1cn2ncc(CC3C[C@@H](C(F)(F)F)NC3=O)cc2n1)C1CCC(F)(F)CC1 (single isomer, unassigned) [Example 10, N—[(S)-(4,4-Difluorocyclohexyl)-[7-[[(3R*,5S)-2-oxo-5-(trifluoromethyl)pyrrolidin-3-yl]methyl]imidazo[1,2-b]pyridazin-2-yl]methyl]-4-methyl-1,2,5-oxadiazole-3-carboxamide] | > 4 | > 4 | –
CC1(C)CC(Cc2cnn3cc([C@@H](NC(=O)c4nonc4C4CC4)C4CCC(F)(F)CC4)nc3c2)C(=O)N1 (single isomer, unassigned) [Example 13, 4-Cyclopropyl-N—[(S)-(4,4-difluorocyclohexyl)-[7-[[(3R*)-5,5-dimethyl-2-oxo-pyrrolidin-3-yl]methyl]imidazo[1,2-b]pyridazin-2-yl]methyl]-1,2,5-oxadiazole-3-carboxamide] | < 0.4 | – | 0.4 to 4
CC[C@@H](c1cnn2cc([C@@H](NC(=O)c3nonc3C3CC3)C3CCC(F)(F)CC3)nc2c1)[C@@H]1C[C@@H](C(F)(F)F)NC1=O (single isomer, unassigned) [Example 19] | < 0.4 | – | < 0.4
O=C(N[C@H](c1cn2ncc([C@H]3C[C@]34C[C@@H](C(F)(F)F)NC4=O)cc2n1)C1CCC(F)(F)CC1)c1nonc1C1CC1 (single isomer, unassigned) [Example 40] | > 4 | – | > 4
O=C(N[C@H](c1cn2ncc(CC3C[C@@H](C4CC4)NC3=O)cc2n1)C1CCC(F)(F)CC1)c1nonc1C1CC1 (single isomer, unassigned) [Example 42, 4-Cyclopropyl-N—((S)-(7-(((3S*,5S)-5-cyclopropyl-2-oxopyrrolidin-3-yl)methyl)imidazo[1,2-b]pyridazin-2-yl)(4,4-difluorocyclohexyl)methyl)-1,2,5-oxadiazole-3-carboxamide] | < 0.4 | < 0.4 | –
O=C(N[C@H](c1cn2ncc(CC3C[C@@H](C4CC4)NC3=O)cc2n1)C1CCC(F)(F)CC1)c1nonc1C1CC1 (single isomer, unassigned) [Example 43, 4-Cyclopropyl-N—((S)-(7-(((3R*,5S)-5-cyclopropyl-2-oxopyrrolidin-3-yl)methyl)imidazo[1,2-b]pyridazin-2-yl)(4,4-difluorocyclohexyl)methyl)-1,2,5-oxadiazole-3-carboxamide] | 0.4 to 4 | > 4 | –
O=C(N[C@H](c1cn2ncc(CC3C(=O)NCC3C(F)(F)F)cc2n1)C1CCC(F)(F)CC1)c1nonc1C1CC1 (single isomer, unassigned) [Example 50] | 0.4 to 4 | – | > 4
